Laboratory results as given in patent publication US20220280530A1, “PREVENTION OR TREATMENT OF DISEASES AND DISORDERS ASSOCIATED WITH TISSUE DAMAGE” (priority 2019, published 2022).
pIC50: −log10 of the molar value. Like-named read-outs stand apart in the source and are kept apart here.

Columns and labels:
MST1 = MST1 (Homo sapiens, UniProt Q13043); assay: MST1 protein kinase inhibition (Table 5); type: biochemical
MST2 = target: T1, MST2 (Homo sapiens, UniProt Q13188); assay: MST2 protein kinase inhibition (Table 5); type: biochemical
T1 sequence (Q13188 1-491): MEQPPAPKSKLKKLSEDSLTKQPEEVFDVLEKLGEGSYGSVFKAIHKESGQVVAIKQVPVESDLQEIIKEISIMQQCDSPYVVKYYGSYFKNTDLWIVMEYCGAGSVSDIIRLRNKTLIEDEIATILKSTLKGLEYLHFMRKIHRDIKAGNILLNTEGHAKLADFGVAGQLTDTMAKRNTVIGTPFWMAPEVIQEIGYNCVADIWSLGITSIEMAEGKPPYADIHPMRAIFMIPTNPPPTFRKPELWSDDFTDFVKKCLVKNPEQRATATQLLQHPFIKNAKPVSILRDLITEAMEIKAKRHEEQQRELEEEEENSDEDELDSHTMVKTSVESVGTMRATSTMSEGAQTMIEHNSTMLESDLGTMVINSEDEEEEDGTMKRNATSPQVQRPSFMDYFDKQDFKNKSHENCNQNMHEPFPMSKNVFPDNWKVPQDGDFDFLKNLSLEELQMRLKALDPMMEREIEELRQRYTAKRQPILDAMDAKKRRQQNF

ICAM-1 = ICAM-1 expression in stimulated HUVECs (western blot); type: cell-based, human; conditions: 1 μM, 1 hour pretreatment, TNF-α (20 ng/mL) and IL-1β (10 ng/mL) 12 hours; FIG. 15A
mice treated with DOX = assay: In vivo cardio protection: heart function and atrophy induced by DOX in mice; conditions: by week four, inhibitors daily i.p., FIG. 11
Method: In vivo cardio protection in mice by the inhibitors of MST1/2 protein kinases was verified by measuring heart function and atrophy induced by DOX (FIG. 8). Two inhibitors X1 (drug 1) and Y1 (drug 2) were administered to the mice daily by i.p. during the entire study period. After administration of the inhibitors for six days, DOX was administered every two days by i.p. for four times. Blood samples were collected periodically from the mice by […]. EdU was administered to the mice during the final four days of the study (FIG. 8).
Further, the mice were disected at the death or at the end of the study and the weight of the hearts was measured.
The heart function measured as EF % (ejection fraction) was impaired by DOX over the four-week study period.

VCAM-1 = VCAM-1 expression in stimulated HUVECs (western blot); type: cell-based, human; conditions: for pIC50: Homo sapiens, HUVEC, read-out: IC50 of inhibition of VCAM-1 expression
[1] = tested on: THP-1 cells / TNFα-activated ECs; assay: Adhesion of THP-1 cells to TNFα-activated endothelial cells; type: cell-based, human; conditions: FIGS. 19A-19B, 20A-20B
Method: To substantiate the functional significance of inhibitors of MST1/2 protein kinases in activating endothelial cells, the monocyte adhesion to the activated endothelial cells was further examined.
Cell adhesion was assessed as the follows: THP1 cells were labeled with calcein-AM (Invitrogen) according to the instructions of the manufacturer. After the HUVECs were stimulated and washed, 2.5×10^5 calcein-labeled THP1 cells were added to each well and allowed to interact with MST1/2 inhibitors for 60 minutes at […]. Unbound cells were removed by gently washing with complete medium, and the number of attached cells was counted on an inverted fluorescent microscope.

[2] = tested on: inflammatory cytokines in the mouse lung; assay: Murine septic model (LPS): inflammatory cytokine mRNA in mouse lung (real-time PCR); type: in vivo, mice; conditions: LPS 2.5 mg/kg i.p.; pretreated twice at 24 hrs and 3 hrs prior; 6 hrs after LPS; FIGS. 21A-21D
Method: In this regard, the mice were pretreated with X1 twice at 24 hrs and 3 hrs, respectively, prior to the injection of lipopolysaccharides (LPS). 6 hrs after injection of LPS to induce the sepsis model, the expression of inflammatory cytokines in the mouse lung was determined by real-time PCR.

[3] = tested on: inflammatory cytokines in HUVEC, such as MCP-1 and IL-6; assay: mRNA levels of inflammatory cytokines in HUVEC after TNFα stimulation (qPCR); type: cell-based, human; conditions: in response to TNFα stimulation, FIGS. 17A-17D, 18A-18D
[4] = tested on: C57B1/6 mice, MCAO-induced cerebral ischemia; assay: Mouse cerebral ischemia model by transient middle cerebral artery occlusion (MCAO); type: in vivo
Method: To verify the protective effect of the inhibitors of MST1/2 protein kinases on the brain injury after ischemic stroke, X1 was administered to mouse cerebral ischemia model induced by transient middle cerebral artery occlusion (MCAO). Briefly, 8-12 week-old C57B1/6 mice (both male and female mice) were intraperitoneal injection with vehicle (DMSO) or 2 mg/kg X1 twice at 24 hours and 3 hours prior to MCAO procedure respectively. Mice were then anesthetized with 2.0% isoflurane, with their body temperature maintained at 37° C. with a heating pad. Following a midline cervical skin incision, the proximal right common carotid artery and the right external carotid artery were ligated. […]
Real-time cerebral blood flow was monitored using a laser speckle contrast imager (PeriCam PSI HR System, Perimed, Sweden) to confirm occlusion of the MCAO and reperfusion after removal of the filament. […] Brain sections were stained with 2% 2,3,5-Triphenyltetrazolium chloride (T8877; Sigma-Aldrich, St. Louis, Mo.) and scanned (HP Scanjet G4010) to allow quantification of infarcted and uninjured brain tissue. […]
In addition, neurological function of the MCAO-induced cerebral ischemia model mice was evaluated after treatment with the MST1/2 protein kinases inhibitor X1. […]

MST1, sequence (Q13043 whole entry, looked up): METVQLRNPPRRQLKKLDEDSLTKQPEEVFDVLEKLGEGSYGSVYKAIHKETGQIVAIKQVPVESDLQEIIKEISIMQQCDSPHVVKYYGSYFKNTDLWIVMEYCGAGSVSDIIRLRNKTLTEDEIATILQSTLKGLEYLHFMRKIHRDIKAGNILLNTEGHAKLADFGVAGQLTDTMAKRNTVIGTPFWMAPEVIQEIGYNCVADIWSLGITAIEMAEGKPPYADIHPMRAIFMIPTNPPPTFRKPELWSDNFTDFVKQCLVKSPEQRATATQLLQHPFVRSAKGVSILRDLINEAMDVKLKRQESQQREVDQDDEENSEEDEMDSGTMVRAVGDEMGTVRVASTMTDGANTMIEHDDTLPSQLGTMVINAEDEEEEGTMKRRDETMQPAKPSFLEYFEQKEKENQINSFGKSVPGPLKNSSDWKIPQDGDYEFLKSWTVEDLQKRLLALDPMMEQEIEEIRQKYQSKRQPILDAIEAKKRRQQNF

| SMILES | pIC50 (MST1) | pIC50 (MST2) | other results |
| --- | --- | --- | --- |
| CN1c2ccccc2C(=O)Nc2cnc(Nc3ccc(NS(C)(=O)=O)cc3)nc21 [IA-6] | < 4.52 | < 4.52 | – |
| NS(=O)(=O)c1ccc(Nc2ncc3c(n2)N(C2CCCC2)c2ccccc2C(=O)N3)cc1 [IB-1] | < 4.52 | < 4.52 | – |
| CN1C(=O)c2ccccc2N(C)c2nc(Nc3cccc(S(N)(=O)=O)c3)ncc21 [IC-4] | < 4.52 | < 4.52 | – |
| CCN1CCN(Cc2ccc(Nc3ncc4c(n3)N(C)c3ccccc3C(=O)N4C)cc2C(F)(F)F)CC1 [IC-5] | – | 5.74 | pIC50 (MST1; read-out: MST1 IC50): 5.72 |
| CCN1c2ccccc2C(=O)N(C)c2cnc(Nc3ccc(S(N)(=O)=O)cc3)nc21 [ID-1] | – | 6.96 | pIC50 (MST1; read-out: MST1 IC50): 7.40 |
| CCN1c2ccccc2C(=O)N(C)c2cnc(Nc3cccc(S(N)(=O)=O)c3)nc21 [ID-3] | – | < 4.52 | – |
| CC(C)N1c2ccccc2C(=O)N(C)c2cnc(Nc3ccc(S(N)(=O)=O)cc3)nc21 [IE-1] | – | 5.61 | pIC50 (MST1; read-out: MST1 IC50): 6.08 |
| CC(C)N1c2ccccc2C(=O)N(C)c2cnc(Nc3cccc(S(N)(=O)=O)c3)nc21 [IE-2] | – | < 4.52 | – |
| CN1CCN(S(=O)(=O)c2ccc(Nc3ncc4c(n3)N(C3CCCC3)c3ccccc3C(=O)N4C)cc2)CC1 [IF-4] | – | < 4.52 | – |
| CN1C(=O)c2ccccc2N(C2CCCC2)c2nc(Nc3cccc(S(N)(=O)=O)c3)ncc21 [IF-5] | < 4.52 | < 4.52 | – |
| CCN1CCN(Cc2ccc(Nc3ncc4c(n3)N(C3CCCC3)c3ccccc3C(=O)N4C)cc2C(F)(F)F)CC1 [IF-6] | – | < 4.52 | – |
| CN1C(=O)c2ccccc2Nc2nc(Nc3cccc(S(N)(=O)=O)c3)ncc21 [IG-3] | < 4.52 | < 4.52 | – |
| Cc1ccc2c(c1)C(=O)N(C)c1cnc(Nc3ccc(S(C)(=O)=O)cc3)nc1N2C [IH-3] | < 4.52 | < 4.52 | – |
| Cc1ccc2c(c1)C(=O)N(C)c1cnc(Nc3ccc(S(N)(=O)=O)cc3)nc1N2C [IH-6] | < 4.52 | < 4.52 | – |
| [2H]c1ccc2c(c1)N(C)c1nc(Nc3ccc(S(N)(=O)=O)cc3)ncc1N(C)C2=O [IH-7] | 5.51 | – | – |
| CN1C(=O)c2cc(Cl)ccc2N(C)c2nc(Nc3ccc(S(N)(=O)=O)cc3)ncc21 [IH-10] | – | < 4.52 | – |
| CN1C(=O)c2ccc(Cl)cc2N(C)c2nc(Nc3ccc(S(C)(=O)=O)cc3)ncc21 [IH-14] | < 4.52 | – | – |
| CN1C(=O)c2sccc2N(C)c2nc(Nc3cccc(S(N)(=O)=O)c3)ncc21 [II-2] | – | < 4.52 | – |
| CN1C(=O)c2sccc2N(C)c2nc(Nc3ccc([N+](=O)[O-])cc3)ncc21 [II-11] | < 4.52 | < 4.52 | – |
| CN1C(=O)c2sccc2N(C)c2nc(Nc3ccc(N)cc3)ncc21 [II-14] | – | 5.56 | pIC50 (MST1; read-out: MST1 IC50): 5.67 |
| COc1cc(N2CCN(C)CC2)ccc1Nc1ncc2c(n1)N(C)c1ccsc1C(=O)N2C [II-16] | < 4.52 | < 4.52 | – |
| COc1cc(N2CCC(O)CC2)ccc1Nc1ncc2c(n1)N(C)c1ccsc1C(=O)N2C [II-22] | < 4.52 | < 4.52 | – |
| CN1C(=O)c2sccc2N(C)c2nc(Nc3cc[nH]n3)ncc21 [II-27] | – | < 4.52 | – |
| CN1C(=O)c2cccc3c2N(CC3)c2nc(Nc3cccc(S(N)(=O)=O)c3)ncc21 [IV-2] | < 4.52 | < 4.52 | – |
| CN1C(=O)c2sccc2N(C)c2nc(Nc3ccc(S(N)(=O)=O)cc3)ncc21 [X1] | – | – | expression of ICAM-1 (ICAM-1): barely affected; heart function measured as EF % (ejection fraction) (mice treated with DOX): reduced the EF % decrease; VCAM-1 expression (VCAM-1; 1 μM, 1 hour pretreatment, TNF-α (20 ng/mL) and IL-1β (10 ng/mL) 12 hours, FIG. 15A): substantially inhibited; pIC50 (VCAM-1): 5.89; adhesion of THP-1 cells to TNFα-activated ECs [1]: markedly inhibited; mRNA level of ICAM-1 in mouse lung [2]: markedly suppressed; mRNA level of IL-6 in mouse lung [2]: markedly suppressed; mRNA level of MCP-1 in mouse lung [2]: markedly suppressed; mRNA level of VCAM-1 in mouse lung [2]: markedly suppressed; mRNA levels of inflammatory cytokines in HUVEC, such as MCP-1 and IL-6 [3]: markedly inhibited; infarct size ([4]; 2 mg/kg i.p. twice, 24 hours and 3 hours prior to MCAO, 60 minutes ischemia, 23 hours reperfusion, FIGS. 13, 14A): significantly attenuated; neurological function (0-4-point neurological score) ([4]; MCAO mice, in comparison with vehicle treatment, FIG. 14B): reducing the damages to neurological functions |
| CN1C(=O)c2ccccc2N(C)c2nc(Nc3ccc(S(N)(=O)=O)cc3)ncc21 [Y1] | – | – | heart function measured as EF % (ejection fraction) (mice treated with DOX): reduced the EF % decrease; pIC50 (VCAM-1; HUVECs, FIGS. 15B, 16A-16B): 6.31; adhesion of THP-1 cells to TNFα-activated ECs [1]: markedly inhibited; mRNA levels of inflammatory cytokines in HUVEC, such as MCP-1 and IL-6 [3]: markedly inhibited |
